Assay results published in US7932262B2 (Novartis AG, priority 2006, dated 2011).
Where two headings read alike, the source gives them in different places.

Tests used:
[1] = molecular target: T1, PDK1 kinase (Homo sapiens, UniProt O15530); experiment: PDK1 Kinase Alpha Screen Assay; format: biochemical; conditions: PDK1 Kinase Alpha Screen Assay; read-out: PDK1 IC50
T1 sequence (O15530 1-556): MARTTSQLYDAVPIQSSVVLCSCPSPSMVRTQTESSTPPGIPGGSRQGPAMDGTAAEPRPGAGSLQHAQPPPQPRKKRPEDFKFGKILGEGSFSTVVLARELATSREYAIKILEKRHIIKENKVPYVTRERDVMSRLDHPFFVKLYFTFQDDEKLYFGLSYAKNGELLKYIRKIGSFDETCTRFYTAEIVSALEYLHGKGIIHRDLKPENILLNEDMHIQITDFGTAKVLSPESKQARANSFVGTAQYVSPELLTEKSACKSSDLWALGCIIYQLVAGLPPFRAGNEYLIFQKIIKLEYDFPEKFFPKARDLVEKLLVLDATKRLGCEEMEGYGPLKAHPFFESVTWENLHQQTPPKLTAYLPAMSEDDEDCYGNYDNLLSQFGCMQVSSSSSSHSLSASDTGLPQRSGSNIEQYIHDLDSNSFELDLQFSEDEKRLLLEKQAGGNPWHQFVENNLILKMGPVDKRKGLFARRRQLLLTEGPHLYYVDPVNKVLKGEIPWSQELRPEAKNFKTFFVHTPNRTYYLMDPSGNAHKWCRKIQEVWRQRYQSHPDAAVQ
Procedure, shortened: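 Kinase inhibition measured as loss of AlphaScreen signal from antibody recognition of phosphorylated biotin-PDK1-4 peptide. Reactions contain 10 uM ATP and 50 nM peptide, run 3-18 hours before EDTA quench and overnight bead development at room temperature.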

[2] = system: PC-3 cells; experiment: Cell Proliferation Assay (Cell Titer Glo), PC-3 cell line; format: cell-based; conditions: PC3, read-out: CPEC50 PC3
Procedure, shortened: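 Cell Titer Glo luminescence, read after fresh medium replaced the dosing medium, gave viability of PC-3 cells plated at 1000 cells/well. Compounds, 1:3 serially diluted in DMSO at 500× and then in medium, were added after 3-5 h adhesion and incubated 3 days at 37° C.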

[3] = Homo sapiens, PC-3, Cell Proliferation Assay

| SMILES | IC50 [1] | EC50 [2, 3] | EC50 ([2]; Cell Proliferation Assay) |
| --- | --- | --- | --- |
| O=C(O)c1cc(Nc2ncc3cccc(OC4CCNCC4)c3n2)ccc1F [Compound 472, 2-fluoro-5-(8-(piperidin-4-yloxy)quinazolin-2-ylamino)benzoic acid] | < 5 µM | 5 to 10 µM | – |
| CN(C)C(=O)c1cc(Nc2ncc3cccc(OC4CCNCC4)c3n2)ccc1F [Compound 473, 2-fluoro-N,N-dimethyl-5-(8-(piperidin-4-yloxy)quinazolin-2-ylamino)benzamide] | < 5 µM | < 5 µM | – |
| CC(C)NC(=O)c1cc(Nc2ncc3cccc(OC4CCNCC4)c3n2)ccc1F [Compound 474, 2-fluoro-N-isopropyl-5-(8-(piperidin-4-yloxy)quinazolin-2-ylamino)benzamide] | < 5 µM | < 5 µM | – |
| O=C(c1cc(Nc2ncc3cccc(OC4CCNCC4)c3n2)ccc1F)N1CCOCC1 [Compound 475, (2-fluoro-5-(8-(piperidin-4-yloxy)quinazolin-2-ylamino)phenyl)(morpholino)methanone] | < 5 µM | 5 to 10 µM | – |
| O=C(NC1CCOCC1)c1cc(Nc2ncc3cccc(OC4CCNCC4)c3n2)ccc1F [Compound 476, 2-fluoro-5-(8-(piperidin-4-yloxy)quinazolin-2-ylamino)-N-(tetrahydro-2H-pyran-4-yl)benzamide] | < 5 µM | < 5 µM | – |
| O=C(c1ccc(Nc2ncc3cccc(OC4CCNCC4)c3n2)cc1F)N1CCCC1 [Compound 477, (2-fluoro-4-(8-(piperidin-4-yloxy)quinazolin-2-ylamino)phenyl)(pyrrolidin-1-yl)methanone] | < 5 µM | < 5 µM | – |
| CN1CCN(C(=O)c2ccc(Nc3ncc4cccc(OC5CCNCC5)c4n3)cc2F)CC1 [Compound 478, (2-fluoro-4-(8-(piperidin-4-yloxy)quinazolin-2-ylamino)phenyl)(4-methylpiperazin-1-yl)methanone] | < 5 µM | < 5 µM | – |
| c1ccc(Nc2ncc3cccc(OC4CCNCC4)c3n2)cc1 [Compound 479, N-phenyl-8-(piperidin-4-yloxy)quinazolin-2-amine] | < 5 µM | < 5 µM | – |
| Fc1cccc(Nc2ncc3cccc(OC4CCNCC4)c3n2)c1 [Compound 480, N-(3-fluorophenyl)-8-(piperidin-4-yloxy)quinazolin-2-amine] | < 5 µM | < 5 µM | – |
| O=C(O)c1ccc(Nc2ncc3cccc(OC4CCNCC4)c3n2)cc1Cl [Compound 481, 2-chloro-4-(8-(piperidin-4-yloxy)quinazolin-2-ylamino)benzoic acid] | < 5 µM | 5 to 10 µM | – |
| CC(C)NC(=O)c1ccc(Nc2ncc3cccc(OC4CCNCC4)c3n2)cc1Cl [Compound 482, 2-chloro-N-isopropyl-4-(8-(piperidin-4-yloxy)quinazolin-2-ylamino)benzamide] | < 5 µM | < 5 µM | – |
| O=C(c1ccc(Nc2ncc3cccc(OC4CCNCC4)c3n2)cc1Cl)N1CCOCC1 [Compound 483, (2-chloro-4-(8-(piperidin-4-yloxy)quinazolin-2-ylamino)phenyl)(morpholino)methanone] | < 5 µM | < 5 µM | – |
| Fc1ccc(Nc2ncc3cccc(OC4CCNCC4)c3n2)cc1Br [Compound 484, N-(3-bromo-4-fluorophenyl)-8-(piperidin-4-yloxy)quinazolin-2-amine] | < 5 µM | < 5 µM | – |
| O=C(NC1CC1)c1ccc(Nc2ncc3cccc(OC4CCNCC4)c3n2)cc1Cl [Compound 485, 2-chloro-N-cyclopropyl-4-(8-(piperidin-4-yloxy)quinazolin-2-ylamino)benzamide] | < 5 µM | < 5 µM | – |
| COCCNC(=O)c1ccc(Nc2ncc3cccc(OC4CCNCC4)c3n2)cc1Cl [Compound 486, 2-chloro-N-(2-methoxyethyl)-4-(8-(piperidin-4-yloxy)quinazolin-2-ylamino)benzamide] | < 5 µM | < 5 µM | – |
| Fc1ccc(Nc2ncc3cccc(OC4CCNCC4)c3n2)cc1C1=CCNCC1 [Compound 487, N-(4-fluoro-3-(1,2,3,6-tetrahydropyridin-4-yl)phenyl)-8-(piperidin-4-yloxy)quinazolin-2-amine] | < 5 µM | < 5 µM | – |
| O=C(O)c1ccc(Nc2ncc3cccc(OC4CCNCC4)c3n2)cc1 [Compound 488, 4-(8-(piperidin-4-yloxy)quinazolin-2-ylamino)benzoic acid] | < 5 µM | < 5 µM | – |

| SMILES | IC50 [1] | EC50 [2, 3] | EC50 ([2]; Cell Proliferation Assay) |
| --- | --- | --- | --- |
| N#Cc1ccc(Nc2ncc3cccc(OC4CCNCC4)c3n2)cc1 [Compound 489, 4-(8-(piperidin-4-yloxy)quinazolin-2-ylamino)benzonitrile] | < 5 µM | < 5 µM | – |
| O=C(NC1CC1)c1ccc(Nc2ncc3cccc(OC4CCNCC4)c3n2)cc1 [Compound 490, N-cyclopropyl-4-(8-(piperidin-4-yloxy)quinazolin-2-ylamino)benzamide] | < 5 µM | < 5 µM | – |
| CC(C)NC(=O)c1ccc(Nc2ncc3cccc(OC4CCNCC4)c3n2)cc1 [Compound 491, N-isopropyl-4-(8-(piperidin-4-yloxy)quinazolin-2-ylamino)benzamide] | < 5 µM | < 5 µM | – |
| COCCNC(=O)c1ccc(Nc2ncc3cccc(OC4CCNCC4)c3n2)cc1 [Compound 492] | < 5 µM | < 5 µM | – |
| CS(=O)(=O)CCNC(=O)c1ccc(Nc2ncc3cccc(OC4CCNCC4)c3n2)cc1F [Compound 493, 2-fluoro-N-(2-(methylsulfonyl)ethyl)-4-(8-(piperidin-4-yloxy)quinazolin-2-ylamino)benzamide] | < 5 µM | < 5 µM | – |
| O=C1CN(C(=O)c2ccc(Nc3ncc4cccc(OC5CCNCC5)c4n3)cc2F)CCN1 [Compound 494, 4-(2-fluoro-4-(8-(piperidin-4-yloxy)quinazolin-2-ylamino)benzoyl)piperazin-2-one] | < 5 µM | 5 to 10 µM | – |
| O=C(NC1CCCC1)c1ccc(Nc2ncc3cccc(OC4CCNCC4)c3n2)cc1F [Compound 495, N-cyclopentyl-2-fluoro-4-(8-(piperidin-4-yloxy)quinazolin-2-ylamino)benzamide] | < 5 µM | < 5 µM | – |
| CC(=O)NCCNC(=O)c1ccc(Nc2ncc3cccc(OC4CCNCC4)c3n2)cc1F [Compound 496, N-(2-acetamidoethyl)-2-fluoro-4-(8-(piperidin-4-yloxy)quinazolin-2-ylamino)benzamide] | < 5 µM | 5 to 10 µM | – |
| O=C(NCCN1CCCC1)c1ccc(Nc2ncc3cccc(OC4CCNCC4)c3n2)cc1F [Compound 497, 2-fluoro-4-(8-(piperidin-4-yloxy)quinazolin-2-ylamino)-N-(2-(pyrrolidin-1-yl)ethyl)benzamide] | < 5 µM | < 5 µM | – |
| O=C(c1ccc(Nc2ncc3c(C(F)(F)F)ccc(OC4CCNCC4)c3n2)cc1)N1CCOCC1 [Compound 501, morpholino(4-(8-(piperidin-4-yloxy)-5-(trifluoromethyl)quinazolin-2-ylamino)phenyl)methanone] | < 5 µM | 5 to 10 µM | – |
| FC(F)(F)c1ccc(OC2CCNCC2)c2nc(Nc3ccc(N4CCOCC4)cc3)ncc12 [Compound 502, N-(4-morpholinophenyl)-8-(piperidin-4-yloxy)-5-(trifluoromethyl)quinazolin-2-amine] | < 5 µM | – | < 5 µM |
| COc1c(NC2CCN(C)CC2)cc(Cl)c2cnc(Nc3ccc(C(=O)N4CCOCC4)cc3)nc12 [Compound 503, (4-(5-chloro-8-methoxy-7-(1-methylpiperidin-4-ylamino)quinazolin-2-ylamino)phenyl)(morpholino)methanone] | < 5 µM | 5 to 10 µM | – |
| CC(C)N1CCC(Oc2cccc3cnc(N)nc23)CC1 [Compound 523, 8-(1-isopropylpiperidin-4-yloxy)quinazolin-2-amine] | 5 to 10 µM | 5 to 10 µM | – |
| Nc1ncc2cccc(O)c2n1 [Compound 524, 2-aminoquinazolin-8-ol] | 10 to 25 µM | < 5 µM | – |
| CC(C)N1CCC(Oc2cccc3cnc(Nc4cccc(NC(=O)N5CCCC5)c4)nc23)CC1 [Compound 525, N-(3-(8-(1-isopropylpiperidin-4-yloxy)quinazolin-2-ylamino)phenyl)pyrrolidine-1-carboxamide] | < 5 µM | < 5 µM | – |
| COc1cc(Nc2ncc3cccc(OC4CCN(C(C)C)CC4)c3n2)cc(OC)c1 [Compound 526, N-(3,5-dimethoxyphenyl)-8-(1-isopropylpiperidin-4-yloxy)quinazolin-2-amine] | < 5 µM | 5 to 10 µM | – |
| CC(C)N1CCC(Oc2cccc3cnc(Nc4cccc(F)c4)nc23)CC1 [Compound 527, N-(3-fluorophenyl)-8-(1-isopropylpiperidin-4-yloxy)quinazolin-2-amine] | < 5 µM | < 5 µM | – |
